In one data set the test system is Caco-2 cells. Kind of data set: Concentration dependent toxicity in Caco-2 cells. It counts as cell-based. The settings on record: human. The method, then:
Cell death observed in the latter case could be attributed to the cumulative effect of high concentration of polymer and available GA. However, a moderate treatment of 250 μg NS appears to be safe for the cells. The amount of GA present in all the NS in […] was much lower than the established safe dose of 60 mg/kg described in literature.

The conditions of data set [1]: described in literature; cited from earlier work.
A further data set addresses TfR (Homo sapiens, UniProt P02786). The data set can be described thus: Sandwich ELISA, binding of fluorescent PLGA-GA/PLGA NS to TfR. The settings on record: 200 ng of TfR. The method, then: GA has been previously shown to have affinity for TfR, independent of transferrin binding. To evaluate the translation of the avidity of GA for TfR in PLGA-GA NS, a sandwich ELISA method was employed. The initial study involved the determination of the effect of surface GA density of NS in their binding affinity to TfR. […] The total […] of the NS suspension available in the wells without TfR was also measured in order to ensure that the variation in the FI with TfR was caused by the binding of the NS to the receptor.
A general note: In an ELISA, binding on a coated surface is turned into a signal by an enzyme label.

SMILES strings stand for the structures.

Chain of TfR (P02786 whole entry, species assumed): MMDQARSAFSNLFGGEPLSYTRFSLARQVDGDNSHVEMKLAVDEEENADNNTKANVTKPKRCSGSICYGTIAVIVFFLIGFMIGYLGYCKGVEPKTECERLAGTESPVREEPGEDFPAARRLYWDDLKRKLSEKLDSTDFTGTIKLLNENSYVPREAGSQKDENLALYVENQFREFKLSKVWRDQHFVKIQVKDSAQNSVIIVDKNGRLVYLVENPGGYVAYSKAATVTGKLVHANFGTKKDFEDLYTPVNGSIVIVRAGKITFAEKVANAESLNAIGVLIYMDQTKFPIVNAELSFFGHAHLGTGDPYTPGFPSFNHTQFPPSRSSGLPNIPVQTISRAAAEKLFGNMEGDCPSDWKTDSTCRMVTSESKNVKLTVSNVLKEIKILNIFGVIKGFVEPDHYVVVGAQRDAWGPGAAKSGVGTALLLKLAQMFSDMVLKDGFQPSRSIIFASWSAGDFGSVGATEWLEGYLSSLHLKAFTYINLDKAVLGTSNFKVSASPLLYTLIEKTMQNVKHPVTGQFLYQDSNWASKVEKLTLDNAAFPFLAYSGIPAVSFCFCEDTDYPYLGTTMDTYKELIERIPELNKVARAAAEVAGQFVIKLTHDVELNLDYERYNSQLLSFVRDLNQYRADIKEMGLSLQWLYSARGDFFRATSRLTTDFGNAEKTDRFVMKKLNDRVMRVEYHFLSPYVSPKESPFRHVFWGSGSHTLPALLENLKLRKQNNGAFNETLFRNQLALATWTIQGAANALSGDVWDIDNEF

`CC(C)=CCC[C@]1(C)C=Cc2c(O)c3c(c(CC=C(C)C)c2O1)O[C@]12C(=C[C@@H]4C[C@H]1C(C)(C)O[C@@]2(C/C=C(/C)C(=O)O)C4=O)C3=O` [GA, gambogic acid]: the results for the cell death in the data set on Caco-2 cells (20 μM) and with Caco-2 cells (30 μM) were 25% and 46%, respectively. The established safe dose in data set [1] is given as 60 mg/kg. Further, the “competition with 2° antibody for TfR (colorimetric TfR levels)” value on TfR is “does not compete with 2° antibody for TfR”.
